Assay results published in ChEMBL document CHEMBL1154382, “Preliminary SAR analysis of novel antiproliferative N(6),5'-bis-ureidoadenosine derivatives” (2009).

What was measured:
Assay type in all cases: functional
Settings in all cases: values are per cent of control
[1] = system: A549; experiment: Antiproliferative activity against human A549 cells at 10 uM assessed as cell growth inhibition relative to control
[2] = system: OVCAR-4; experiment: Antiproliferative activity against human OVCAR4 cells at 10 uM assessed as cell growth inhibition relative to control
[3] = system: EKVX; experiment: Antiproliferative activity against human EKVX cells at 10 uM assessed as cell growth inhibition relative to control
[4] = system: BT-549; experiment: Antiproliferative activity against human BT549 cells at 10 uM assessed as cell growth inhibition relative to control
[5] = system: SK-MEL-28; experiment: Antiproliferative activity against human SK-MEL-28 cells at 10 uM assessed as cell growth inhibition relative to control
[6] = system: CCRF-CEM; experiment: Antiproliferative activity against human CCRF-CEM cells at 10 uM assessed as cell growth inhibition relative to control
[7] = system: SK-OV-3; experiment: Antiproliferative activity against human SKOV3 cells at 10 uM assessed as cell growth inhibition relative to control
[8] = Antiproliferative activity against human Hs 578T cells at 10 uM assessed as cell growth inhibition relative to control
[9] = system: K562; experiment: Antiproliferative activity against human K562 cells at 10 uM assessed as cell growth inhibition relative to control
[10] = system: DU-145; experiment: Antiproliferative activity against human DU145 cells at 10 uM assessed as cell growth inhibition relative to control
[11] = system: MCF7; experiment: Antiproliferative activity against human MCF7 cells at 10 uM assessed as cell growth inhibition relative to control
[12] = system: HOP-92; experiment: Antiproliferative activity against human HOP92 cells at 10 uM assessed as cell growth inhibition relative to control
[13] = system: HL-60(TB); experiment: Antiproliferative activity against human HL-60(TB) cells at 10 uM assessed as cell growth inhibition relative to control
[14] = system: NCI-H460; experiment: Antiproliferative activity against human NCI-H460 cells at 10 uM assessed as cell growth inhibition relative to control
[15] = system: TK-10; experiment: Antiproliferative activity against human TK10 cells at 10 uM assessed as cell growth inhibition relative to control
[16] = system: NCI-H226; experiment: Antiproliferative activity against human NCI-H226 cells at 10 uM assessed as cell growth inhibition relative to control
[17] = system: UACC-257; experiment: Antiproliferative activity against human UACC257 cells at 10 uM assessed as cell growth inhibition relative to control
[18] = system: RXF 393; experiment: Antiproliferative activity against human RXF393 cells at 10 uM assessed as cell growth inhibition relative to control
[19] = system: KM12; experiment: Antiproliferative activity against human KM12 cells at 10 uM assessed as cell growth inhibition relative to control
[20] = system: SK-MEL-2; experiment: Antiproliferative activity against human SK-MEL-2 cells at 10 uM assessed as cell growth inhibition relative to control
[21] = system: HCT-15; experiment: Antiproliferative activity against human HCT15 cells at 10 uM assessed as cell growth inhibition relative to control
[22] = system: LOX IMVI; experiment: Antiproliferative activity against human LOXIMVI cells at 10 uM assessed as cell growth inhibition relative to control
[23] = system: HCT-116; experiment: Antiproliferative activity against human HCT116 cells at 10 uM assessed as cell growth inhibition relative to control
[24] = system: NCI-H322M; experiment: Antiproliferative activity against human NCI-H322M cells at 10 uM assessed as cell growth inhibition relative to control
[25] = system: SF-539; experiment: Antiproliferative activity against human SF539 cells at 10 uM assessed as cell growth inhibition relative to control
[26] = system: MDA-MB-468; experiment: Antiproliferative activity against human MDA-MB-468 cells at 10 uM assessed as cell growth inhibition relative to control
[27] = system: SF-295; experiment: Antiproliferative activity against human SF295 cells at 10 uM assessed as cell growth inhibition relative to control
[28] = system: SF-268; experiment: Antiproliferative activity against human SF268 cells at 10 uM assessed as cell growth inhibition relative to control
[29] = system: CAKI-1; experiment: Antiproliferative activity against human Caki1 cells at 10 uM assessed as cell growth inhibition relative to control
[30] = system: OVCAR-5; experiment: Antiproliferative activity against human OVCAR5 cells at 10 uM assessed as cell growth inhibition relative to control
[31] = system: MOLT-4; experiment: Antiproliferative activity against human MOLT4 cells at 10 uM assessed as cell growth inhibition relative to control
[32] = system: NCI-H23; experiment: Antiproliferative activity against human NCI-H23 cells at 10 uM assessed as cell growth inhibition relative to control
[33] = system: SNB-19; experiment: Antiproliferative activity against human SNB19 cells at 10 uM assessed as cell growth inhibition relative to control
[34] = system: T47D; experiment: Antiproliferative activity against human T47D cells at 10 uM assessed as cell growth inhibition relative to control
[35] = system: U-251; experiment: Antiproliferative activity against human U251 cells at 10 uM assessed as cell growth inhibition relative to control
[36] = system: Malme-3M; experiment: Antiproliferative activity against human MALME-3M cells at 10 uM assessed as cell growth inhibition relative to control
[37] = system: NCI-H522; experiment: Antiproliferative activity against human NCI-H522 cells at 10 uM assessed as cell growth inhibition relative to control
[38] = system: SN12C; experiment: Antiproliferative activity against human SN12C cells at 10 uM assessed as cell growth inhibition relative to control
[39] = system: COLO 205; experiment: Antiproliferative activity against human COLO205 cells at 10 uM assessed as cell growth inhibition relative to control
[40] = Antiproliferative activity against human […] cells at 10 uM assessed as cell growth inhibition relative to control
[41] = system: SK-MEL-5; experiment: Antiproliferative activity against human SK-MEL-5 cells at 10 uM assessed as cell growth inhibition relative to control
[42] = system: OVCAR-8; experiment: Antiproliferative activity against human OVCAR8 cells at 10 uM assessed as cell growth inhibition relative to control
[43] = system: 786-0; experiment: Antiproliferative activity against human 786-0 cells at 10 uM assessed as cell growth inhibition relative to control
[44] = system: HT-29; experiment: Antiproliferative activity against human HT-29 cells at 10 uM assessed as cell growth inhibition relative to control
[45] = system: OVCAR-3; experiment: Antiproliferative activity against human OVCAR-3 cells at 10 uM assessed as cell growth inhibition relative to control
[46] = system: SNB-75; experiment: Antiproliferative activity against human SNB75 cells at 10 uM assessed as cell growth inhibition relative to control
[47] = system: A498; experiment: Antiproliferative activity against human A498 cells at 10 uM assessed as cell growth inhibition relative to control
[48] = system: IGROV-1; experiment: Antiproliferative activity against human IGROV1 cells at 10 uM assessed as cell growth inhibition relative to control
[49] = system: SW-620; experiment: Antiproliferative activity against human SW620 cells at 10 uM assessed as cell growth inhibition relative to control
[50] = system: MDA-MB-231; experiment: Antiproliferative activity against human MDA-MB-231 cells at 10 uM assessed as cell growth inhibition relative to control
[51] = system: M14; experiment: Antiproliferative activity against human M14 cells at 10 uM assessed as cell growth inhibition relative to control
[52] = system: ACHN; experiment: Antiproliferative activity against human ACHN cells at 10 uM assessed as cell growth inhibition relative to control
[53] = system: HOP-62; experiment: Antiproliferative activity against human HOP62 cells at 10 uM assessed as cell growth inhibition relative to control
[54] = system: UACC-62; experiment: Antiproliferative activity against human UACC62 cells at 10 uM assessed as cell growth inhibition relative to control
[55] = system: PC-3; experiment: Antiproliferative activity against human PC3 cells at 10 uM assessed as cell growth inhibition relative to control
[56] = system: UO-31; experiment: Antiproliferative activity against human UO31 cells at 10 uM assessed as cell growth inhibition relative to control
[57] = system: HCC 2998; experiment: Antiproliferative activity against human HCC2998 cells at 10 uM assessed as cell growth inhibition relative to control

SMILES: CCOC(=O)C[C@H]1[C@@H](O[Si](C)(C)C(C)(C)C)[C@H](n2cnc3c(N)ncnc32)O[C@@H]1CNC(=O)NC
- growth, % of control at 10 µM [1]: 84%
- growth, % of control at 10 µM [2]: 99%
- growth, % of control at 10 µM [3]: 92%
- growth, % of control at 10 µM [4]: 85%
- growth, % of control at 10 µM [5]: 107%
- growth, % of control at 10 µM [6]: 98%
- growth, % of control at 10 µM [7]: 110%
- growth, % of control at 10 µM [8]: 98%
- growth, % of control at 10 µM [9]: 106%
- growth, % of control at 10 µM [10]: 98%
- growth, % of control at 10 µM [11]: 87%
- growth, % of control at 10 µM [12]: 94%
- growth, % of control at 10 µM [13]: 107%
- growth, % of control at 10 µM [14]: 111%
- growth, % of control at 10 µM [15]: 101%
- growth, % of control at 10 µM [16]: 99%
- growth, % of control at 10 µM [17]: 86%
- growth, % of control at 10 µM [18]: 138%
- growth, % of control at 10 µM [19]: 103%
- growth, % of control at 10 µM [20]: 91%
- growth, % of control at 10 µM [21]: 97%
- growth, % of control at 10 µM [22]: 92%
- growth, % of control at 10 µM [23]: 100%
- growth, % of control at 10 µM [24]: 94%
- growth, % of control at 10 µM [25]: 97%
- growth, % of control at 10 µM [26]: 92%
- growth, % of control at 10 µM [27]: 101%
- growth, % of control at 10 µM [28]: 97%
- growth, % of control at 10 µM [29]: 96%
- growth, % of control at 10 µM [30]: 87%
- growth, % of control at 10 µM [31]: 108%
- growth, % of control at 10 µM [32]: 97%
- growth, % of control at 10 µM [33]: 99%
- growth, % of control at 10 µM [34]: 95%
- growth, % of control at 10 µM [35]: 98%
- growth, % of control at 10 µM [36]: 95%
- growth, % of control at 10 µM [37]: 79%
- growth, % of control at 10 µM [38]: 88%
- growth, % of control at 10 µM [39]: 117%
- growth, % of control at 10 µM [40]: 98%
- growth, % of control at 10 µM [41]: 94%
- growth, % of control at 10 µM [42]: 100%
- growth, % of control at 10 µM [43]: 93%
- growth, % of control at 10 µM [44]: 111%
- growth, % of control at 10 µM [45]: 98%
- growth, % of control at 10 µM [46]: 86%
- growth, % of control at 10 µM [47]: 109%
- growth, % of control at 10 µM [48]: 97%
- growth, % of control at 10 µM [49]: 96%
- growth, % of control at 10 µM [50]: 96%
- growth, % of control at 10 µM [51]: 106%
- growth, % of control at 10 µM [52]: 90%
- growth, % of control at 10 µM [53]: 84%
- growth, % of control at 10 µM [54]: 80%
- growth, % of control at 10 µM [55]: 98%
- growth, % of control at 10 µM [56]: 87%
- growth, % of control at 10 µM [57]: 84%
